Experimental data published in ChEMBL document CHEMBL3045481, “Insecticide-induced resurgence of the whitebacked planthopper Sogatella furcifera (Horvath) (Hemiptera: Delphacidae) on rice varieties with different levels of resistance” (Crop Prot, 2011).
Activity calls are given as the source filed them. The calls are words filed in the database; no cut-off is given here.

Assays:
[1] = tested on: Sogatella furcifera; test: Insecticidal activity against Sogatella furcifera on insect-resistanct rice plant PR116 assessed as reproduction at 0.0018% concentration; format: functional, organism-based
[2] = tested on: Sogatella furcifera; test: Insecticidal activity against Sogatella furcifera on insect-sensitive rice plant ARC6248 assessed as resurgence ratio at 0.100% concentration; format: functional
[3] = tested on: Sogatella furcifera; test: Insecticidal activity against adult Sogatella furcifera on insect-resistanct rice plant PR116 assessed as high mortality at 0.0035% concentration; format: functional, organism-based
[4] = tested on: Sogatella furcifera; test: Insecticidal activity against Sogatella furcifera on insect-sensitive rice plant ARC6248 assessed as nymphal survival at 0.0018% concentration (reference value: 34.17%); format: functional
[5] = tested on: Sogatella furcifera; test: Insecticidal activity against adult Sogatella furcifera on insect-sensitive rice plant ARC6248 assessed as high mortality at 0.0035% concentration; format: functional, organism-based
[6] = tested on: Sogatella furcifera; test: Insecticidal activity against Sogatella furcifera on insect-sensitive rice plant ARC6248 assessed as nymphal duration at 0.0018% concentration (reference value: 14.48 days); format: functional
[7] = tested on: Sogatella furcifera; test: Insecticidal activity against Sogatella furcifera on insect-sensitive rice plant ARC6248 assessed as reproduction at 0.0018% concentration; format: functional, organism-based
[8] = tested on: Sogatella furcifera; test: Insecticidal activity against Sogatella furcifera on insect-resistanct rice plant PR116 assessed as nymphal duration at 0.0018% concentration (reference value: 11.75 days); format: functional
[9] = tested on: Sogatella furcifera; test: Insecticidal activity against Sogatella furcifera on insect-sensitive rice plant ARC6248 assessed as growth index at 0.0018% concentration (reference value: 2.38%); format: functional
[10] = tested on: Sogatella furcifera; test: Insecticidal activity against Sogatella furcifera on insect-resistanct rice plant PR116 assessed as resurgence ratio at 0.100% concentration; format: functional
[11] = tested on: Sogatella furcifera; test: Insecticidal activity against Sogatella furcifera on insect-resistanct rice plant PR116 assessed as growth index at 0.0018% concentration (reference value: 6.02%); format: functional
[12] = tested on: Sogatella furcifera; test: Insecticidal activity against Sogatella furcifera on insect-resistanct rice plant PR116 assessed as nymphal survival at 0.0018% concentration (reference value: 70.28%); format: functional

## O=[N+]([O-])/N=C1\NCCN1Cc1ccc(Cl)nc1 [IMIDACLOPRID]
[1]
  inhibition: inactive
[2]
  Ratio: <1
[3]
  inhibition: Active
[4]
  Survival: 35.56%
[5]
  inhibition: Active
[6]
  Time: 14.46 days
[7]
  inhibition: inactive
[8]
  Time: 11.85 days
[9]
  growth inhibition (GI): 2.48%
[10]
  Ratio: <1
[11]
  growth inhibition (GI): 5.91%
[12]
  Survival: 69.72%
